Test results taken from patent US10787448B2, “Indolizino [3,2-C] quinoline-based fluorescent probe” (SEOUL NATIONAL UNIVERSITY R & DB FOUNDATION, priority 2015, dated 2020).
pKd: −log10 of the molar value. “Also recorded” adds a separate entry of the source. Like-named read-outs stand apart in the source and are kept apart here.

Experiments:
[1] = in water; cited from earlier work
[2] = Analysis of optical characteristics (absorption, fluorescence emission, quantum yield) in solvents; type: physicochemical; settings: for Fluorescence Emission Intensity / Peak emission wavelength λmax em(nm) / Relative fluorescence Emission Intensitynorm: H2O at 2 μM; for Peak emission wavelength λmax em(nm): excited at the longest absorption maxima; for Relative fluorescence Emission Intensitynorm: normalized fluorescence intensity; for Fluorescence quantum yield (Φ): Rhodamine 6G as a standard (Φ = 0.86 in water)
Procedure, shortened: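 Optical properties of indolizinoquinoline compounds were examined in solvents. A 10 mM DMSO stock was diluted into the solvent, and fluorescence emission spectra were recorded at 20° C. on a JASCO FP-6500 spectrofluorometer. Absorption spectra were taken at room temperature on a Perkin Elmer Lamda 20 UV/VIS spectrometer. Fluorescence quantum yield (Φ) was determined.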

PDEδ [3] = target: T1, PDEδ (Homo sapiens, UniProt O43924); test: Confirmation of target protein using FRET; type: binding; settings: irradiated with 280-nm light
T1 construct: made in house; host or cells: E. coli
T1 sequence (O43924 whole entry): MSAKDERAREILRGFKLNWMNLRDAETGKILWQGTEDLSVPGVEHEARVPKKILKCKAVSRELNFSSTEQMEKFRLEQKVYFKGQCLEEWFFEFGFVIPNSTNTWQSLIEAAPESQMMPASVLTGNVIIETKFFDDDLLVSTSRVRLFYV
Description: Therefore, to confirm whether the fluorescent material is able to selectively bind to a specific protein in a cell, fluorescence of the recombinant PDE and/or indolizino[3,2-c]quinoline compound, which is overexpressed in E. coli cells, followed by isolation and purification, was measured by being irradiated with 280-nm light.

HeLa cells = test: Cell permeability: fluorescence imaging and live cell confocal imaging; type: cell-based; settings: HeLa cells
Description: HeLa cells were seeded in a 96-well plate and incubated for 24 hours. The cells were treated with the indolizino[3,2-c]quinoline compounds, and incubated at 37° C. under a 5% CO2 condition for 30 minutes. After removal of the medium, the cells were washed with 1×DPBS. The washed cells were fixed with 4% formaldehyde at room temperature for 10 minutes, and washed with 1×DPBS. A cell image was screened using an Operetta HTS imaging system (PerkinElmer).
After HeLa cells were seeded to account for 70 to 80% of the area of a confocal dish (SPL life science) and overnight cultured, the indolizino[3,2-c]quinoline compounds (10 μM) prepared by mixing fresh DMEM after removal of the existing DMEM medium were dispensed, and the cells were incubated for 30 minutes to 1 hour at 37° C. Afterward, if needed, LysoTracker (50 nM) was mixed with DMEM to remove the existing medium and then dispensed to the cells, and the cells were incubated for 30 minutes at 37° C. After incubation, without washing, the cells were examined by a confocal laser microscope (Leica TCS SP8 SMD, Leica, Mannheim, Germany). However, when co-stained with a LysoTracker, the cells were washed with DPBS twice before the microscopy. […]

cells [4] = test: Co-staining / co-localization with DAPI, MitoTracker or LysoTracker; type: cell-based
cells [5] = test: Comparison of fluorescence stability with conventionally developed dyes; type: cell-based
PDEδ [6] = target: T1, PDEδ; test: Titration using fluorescence polarization; type: binding; settings: Table 9
PDEδ [7] = target: T1, PDEδ; test: Titration using fluorescence polarization; type: binding; settings: 0.5 μM compound, PDEδ protein from 0 to 32 μM
Description: To confirm whether the indolizino[3,2-c]quinoline compound can bind to a specific intracellular protein, in the presence of 0.5 μM of the indolizino[3,2-c]quinoline compound, titration was performed by increasing the concentration of the PDEδ protein from 0 to 32 μM to measure a polarization degree.

[8] = test system: DNA oligomers (48 bp) tetO sequences; test: Binding to DNA by fluorescence spectrophotometer; settings: hybridized tetO DNA oligomers added, 1 minute incubation
Description: Using a fluorescence spectrophotometer, it was confirmed whether the indolizino[3,2-c]quinoline compound of the present invention binds to DNA. First, DNA oligomers (48 bp) used in the experiment are tetO sequences, and the base sequences thereof are as follows.
The same molarities of oligomers were mixed while being heated at 95° C. for 5 minutes and cooled to room temperature for 2 hours to hybridize, the fluorescence of each of the indolizino[3,2-c]quinoline compounds of the present invention was measured, a corresponding equivalent of DNA oligomer was added to a cuvette, and then incubated while blocking light for 1 minute to measure fluorescence again.

Row | Structure (SMILES) | kmax em(nm) (PDEδ [6]) | λabs(nm) (PDEδ [6]) | quantum yield (Φ) ([2]; DW, standard Rhodamine 6G) | quantum yield (Φ) ([2]; EtOH, standard Coumarin 153) | Fluorescence Emission Intensity [2] | Peak emission wavelength λmax em(nm) [2] [nm] | Relative fluorescence Emission Intensitynorm [2] | pKd (PDEδ [7]) | other results
1 | O=c1cc(C(F)(F)F)c2cc3c4c(c2o1)CCCN4CCC3 [Coumarin 153] |  |  |  |  |  |  |  |  | quantum yield of the standard (Φ) [1]: 0.12
2 | O=[N+]([O-])c1ccc(-c2nc3ccccc3c3cc4ccccn4c23)cc1 [IQ 2, 6-(4-nitrophenyl)indolizino[3,2-c]quinoline] |  |  |  |  |  |  |  |  | fluorescence (intensity, in words) [2]: did not induce fluorescence; fluorescence change / binding to PDEδ by FRET (PDEδ [3]): low fluorescence intensity
3 | Cc1cccn2c1cc1c3ccccc3nc(-c3ccc([N+](=O)[O-])cc3)c12 [IQ 13, 11-methyl-6-(4-nitrophenyl)indolizino[3,2-c]quinoline] |  |  |  |  |  |  |  |  | fluorescence (intensity, in words) [2]: did not induce fluorescence; fluorescence change / binding to PDEδ by FRET (PDEδ [3]): no change in fluorescence
4 | CN(C)c1ccc(-c2nc3ccccc3c3cc4ccccn4c23)cc1 [IQ 36, 4-(indolizino[3,2-c]quinolin-6-yl)-N,N-dimethylaniline] |  |  |  |  |  |  |  |  | intracellular molecule recognized (HeLa cells): recognized intracellular RNA; intracellular organelles in which fluorescence is detected (HeLa cells): intensively distributed in cytoplasmic and nucleolus areas; staining pattern compared with conventional dyes (cells [4]): an aspect similar to RNA select for staining RNA; also recorded: stains RNA in a pattern similar to the now currently available Sytoselect; staining pattern compared with conventional dyes (cells [4]; listed as Formula 12): works as a complementary stain with respect to DAPI; fluorescence stability compared with commercially available dyes (cells [5]): superior stability, compared to Sytoselect
5 | Brc1ccc(-c2nc3ccccc3c3cc4ccccn4c23)cc1 [compound 1] | 530 | 430 | 0.015 | 0.636 | 32.7 | 522 | 0.14 | 6.55 | Maximum absorption wavelength λmax abs(nm) [2]: 400 nm
6 | Cc1ccc(-c2nc3ccccc3c3cc4ccccn4c23)cc1 [compound 3] | 526 | 440 | 0.068 | 0.839 | 59.7 | 519 | 0.26 | 6.31 | change in fluorescence intensity on addition of DNA oligomer [8]: Decrease in fluorescence intensity
7 | c1ccc(-c2nc3ccccc3c3cc4ccccn4c23)cc1 [compound 4] | 515 | 430 | 0.039 | 0.779 | 55.0 | 519 | 0.24 | 6.30 | change in fluorescence intensity on addition of DNA oligomer [8]: Decrease in fluorescence intensity
8 | COc1ccc(-c2nc3ccccc3c3cc4ccccn4c23)cc1 [compound 6] | 515 | 430 |  |  | 231.3 | 514.5 | 0.99 | 6.14 | shift of maximum emission wavelength on addition of DNA oligomer [8]: wavelength to longer wavelength; Absorption coefficient (cm^−1M^−1) [2]: 6547 cm^−1M^−1; Absorption wavelength λex(nm) [2]: 430 nm; Emission wavelength λem(nm) [2]: 515 nm; Maximum absorption wavelength λmax abs(nm) [2]: 430 nm; λem (nm) ([2]; DMF): 469 nm; λem (nm) ([2]; DMSO): 512 nm; λem (nm) ([2]; EtOH): 465 nm; λem (nm) ([2]; EtOH:CHCl3 = 1:5): 466 nm; λem (nm) ([2]; H2O): 511 nm; λem (nm) ([2]; MC): 467 nm; Fluorescence quantum yield (Φ) [2]: 0.121
9 | COc1ccc(-c2nc3ccccc3c3cc4ccccn4c23)cc1OC [compound 8] | 515 | 430 | 0.102 | 0.652 | 171.3 | 513 | 0.74 | 5.89 | shift of maximum emission wavelength on addition of DNA oligomer [8]: wavelength to longer wavelength
10 | c1ccc2c(-c3nc4ccccc4c4cc5ccccn5c34)cccc2c1 [compound 9] | 515 | 430 |  |  | 232.9 | 514 | 1.00 | 5.81 | Absorption coefficient (cm^−1M^−1) [2]: 11656 cm^−1M^−1; Absorption wavelength λex(nm) [2]: 405 nm; Emission wavelength λem(nm) [2]: 515 nm; λem (nm) ([2]; DMF): 478 nm; λem (nm) ([2]; DMSO): 514 nm; λem (nm) ([2]; EtOH): 465.5 nm; λem (nm) ([2]; EtOH:CHCl3 = 1:5): 467.5 nm; λem (nm) ([2]; H2O): 516 nm; λem (nm) ([2]; MC): 469 nm; Fluorescence quantum yield (Φ) [2]: 0.053
11 | c1ccc2cc(-c3nc4ccccc4c4cc5ccccn5c34)ccc2c1 [compound 10] | 530 | 430 | 0.015 | 0.350 | 39.6 | 532 | 0.17 | 6.19 | change in fluorescence intensity on addition of DNA oligomer [8]: Increase in fluorescence intensity
